Patent US6228880A, “4-amino-(ethylamino)-oxindole dopamine autoreceptor agonists” (American Home Products Corp, priority 1999, dated 2001)
Structures can show the parent of a compound that is named as a salt.

Experiments:
dopamine D2 receptor [1] = target: T1, dopamine D2 receptor (Rattus norvegicus, UniProt P61169); assay: Affinity for the dopamine D2 receptor, 3H-spiroperidol binding in limbic brain tissue homogenate (D2 Spiper); conditions: 3H-spiroperidol (Spiper.); homogenized limbic brain tissue
T1 construct: from tissue; host or cells: limbic brain tissue homogenate
Description: High affinity for the dopamine D2 receptor was established by the standard experimental test procedure of Fields, et al., Brain Res., 136:578 (1977) and Yamamura et al., eds., Neurotransmitter Receptor Binding, Raven Press, N.Y. (1978). Homogenized limbic brain tissue was incubated with ^3 H-spiroperidol (Spiper.) and the appropriate concentrations of test compound, filtered, washed and shaken with Hydrofluor scintillation cocktail (available from National Diagnostics) and counted in a Packard 460 CD scintillation counter.

dopamine D2 receptor [2] = target: T1, dopamine D2 receptor; assay: Ratio of D2 Spiper to D2 Quin. (LowAg/HighAg, intrinsic activity); type: binding; conditions: D2 Spiper IC50 / D2 Quin. IC50 (LowAg/HighAg)
From the text: Efforts to induce antipsychotic activity with dopamine autoreceptor agonists have been successful (e.g., see Dorsini et al., Adv. Biochem. Psychopharmacol., 16:645-648 (1977); Tamminga et al., Science, 200:567-568 (1975); and Tamminga et al., Psychiatry 398-402 (1986). A method for determining intrinsic activity at the dopamine D2 receptor was recently reported by Lahti et al., Mol. Pharm. 42:432-438 (1993). Intrinsic activity is predicted using the ratio of the "low-affinity agonist" (i.e., LowAg) state of the receptor and the "high-affinity agonist" (i.e., HighAg) state of the receptor, i.e. LowAg/HighAg. These ratios correlate with the agonist, partial agonist, and antagonist activities of a given compound. Such activities characterize the ability of a compound to elicit an antipsychotic effect.
The affinity for the dopamine autoreceptor was established by the standard experimental test procedure of Seemen and Schaus, European Journal of Pharmacology, 203:105-109 (1991). According to this procedure, homogenized rat striatal brain tissue was incubated with the appropriate concentrations of test compound, filtered and washed and counted in a Betaplate scintillation counter. […]

[3] = target: T2, dopamine autoreceptor (D2) (Rattus norvegicus, UniProt P61169); assay: Affinity for the dopamine autoreceptor, rat striatal tissue homogenate (D2 Quin.); type: binding; conditions: homogenized rat striatal brain tissue
T2 construct: from tissue; host or cells: rat striatum homogenate
Description: The affinity for the dopamine autoreceptor was established by the standard experimental test procedure of Seemen and Schaus, European Journal of Pharmacology, 203:105-109 (1991). According to this procedure, homogenized rat striatal brain tissue was incubated with the appropriate concentrations of test compound, filtered and washed and counted in a Betaplate scintillation counter.

T1 sequence (P61169 whole entry): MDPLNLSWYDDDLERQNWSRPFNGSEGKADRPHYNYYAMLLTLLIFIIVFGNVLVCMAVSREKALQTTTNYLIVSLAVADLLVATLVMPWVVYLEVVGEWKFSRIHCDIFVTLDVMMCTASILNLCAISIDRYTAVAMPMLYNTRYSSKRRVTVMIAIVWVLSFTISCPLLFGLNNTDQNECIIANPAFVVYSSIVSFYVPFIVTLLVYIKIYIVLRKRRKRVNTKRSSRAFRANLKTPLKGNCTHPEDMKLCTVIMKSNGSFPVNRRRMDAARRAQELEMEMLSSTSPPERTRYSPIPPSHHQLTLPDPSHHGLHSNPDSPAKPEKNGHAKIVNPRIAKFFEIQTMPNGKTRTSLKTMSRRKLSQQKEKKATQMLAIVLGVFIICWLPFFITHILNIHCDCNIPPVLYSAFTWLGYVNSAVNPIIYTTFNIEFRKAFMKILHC
T2 sequence (P61169 whole entry): as above

IC50 (dopamine D2 receptor [1]): 892 nM | Ratio (dopamine D2 receptor [2]): 67.7 | IC50 [3]: 13.2 nM
SMILES: O=C1Cc2c(NCCNCc3ccccc3)cccc2N1 [Example 1, 4-(2-Benzylamino-ethylamino)-1,3-dihydro-indol-2-one.dihydrochloride.0.1 hydrate]
